For test [1], the system named is Plasmodium falciparum. Briefly: Antimalarial activity against Plasmodium falciparum W2 assessed as inhibition of [3H]hypoxanthine uptake. Format: functional, organism-based.
Test [2] deals with Plasmodium falciparum. The test can be described thus: Antimalarial activity against Plasmodium falciparum W2 assessed as inhibition of [3H]hypoxanthine uptake organism selected on 50 ng/mL compound concentration. The format is functional, organism-based.
The test system of test [3] is Plasmodium falciparum. Briefly: Antimalarial activity against Plasmodium falciparum W2 assessed as inhibition of [3H]hypoxanthine uptake organism selected on 80 ng/mL compound concentration. The format is functional, organism-based.
For test [4], the system named is Plasmodium falciparum. The test can be described thus: Antimalarial activity against Plasmodium falciparum D6 assessed as inhibition of [3H]hypoxanthine uptake. The format is functional, organism-based.
The test system of test [5] is Plasmodium falciparum. The test can be described thus: Antimalarial activity against Plasmodium falciparum D6 assessed as inhibition of [3H]hypoxanthine uptake organism selected on 50 ng/ml compound concentration. The format is functional, organism-based.
The test system of test [6] is Plasmodium falciparum. Briefly: Antimalarial activity against Plasmodium falciparum D6 assessed as inhibition of [3H]hypoxanthine uptake organism selected on 80 ng/ml compound concentration. Format: functional, organism-based.
The test system of test [7] is Plasmodium falciparum. The test can be described thus: Antimalarial activity against Plasmodium falciparum TM91C235 assessed as inhibition of [3H]hypoxanthine uptake. The format is functional, organism-based.
Test [8] deals with Plasmodium falciparum. The test can be described thus: Antimalarial activity against Plasmodium falciparum TM91C235 assessed as inhibition of [3H]hypoxanthine uptake organism selected on 50 ng/mL compound concentration. The format is functional, organism-based.
The subject of test [9] is Plasmodium falciparum. The test can be described thus: Antimalarial activity against Plasmodium falciparum TM91C235 assessed as inhibition of [3H]hypoxanthine uptake organism selected on 80 ng/mL compound concentration. Format: functional, organism-based.
Test [10] relates to Plasmodium falciparum. The test can be described thus: Antimalarial activity against Plasmodium falciparum W2 organism selected on 40 ng/ml compound concentration. Format: functional, organism-based.
Test [11] relates to Plasmodium falciparum. Briefly: Antimalarial activity against Plasmodium falciparum W2 organism selected on up to 80 ng/ml compound concentration. Format: functional, organism-based.
In test [12] the test system is Plasmodium falciparum. The test can be described thus: Antimalarial activity against Plasmodium falciparum TM91C235 selected on 30 ng/ml compound concentration. The format is functional, organism-based.
Test [13] relates to Plasmodium falciparum. The test can be described thus: Antimalarial activity against Plasmodium falciparum D6 organism selected on 30 ng/ml compound concentration. Format: functional, organism-based.
Test [14] concerns Plasmodium falciparum. Briefly: Antimalarial activity against Plasmodium falciparum W2 harboring 1 copy number of pfmdr1 gene organism selected at 10 to 30 ng/ml compound concentration. The format is functional, organism-based.
In test [15] the test system is Plasmodium falciparum. The test can be described thus: Antimalarial activity against Plasmodium falciparum W2 harboring 3 copy number of pfmdr1 gene organism selected at 50 ng/ml compound concentration. Format: functional, organism-based.
For test [16], the system named is Plasmodium falciparum. The test can be described thus: Antimalarial activity against Plasmodium falciparum W2 harboring 3 copy number of pfmdr1 gene organism selected at 80 ng/ml compound concentration. The format is functional, organism-based.
The test system of test [17] is Plasmodium falciparum. The test can be described thus: Antimalarial activity against Plasmodium falciparum W2 harboring 3 copy number of pfmdr1 gene organism selected at 120 ng/ml compound concentration. The format is functional, organism-based.
Test [18] has as its system Plasmodium falciparum. The test can be described thus: Antimalarial activity against Plasmodium falciparum TM91C235 harboring 3 copy number of pfmdr1 gene organism selected at 80 ng/ml compound concentration. The format is functional, organism-based.
The test system of test [19] is Plasmodium falciparum. Briefly: Antimalarial activity against Plasmodium falciparum TM91C235 harboring 2 copy number of pfmdr1 gene organism selected at 10 to 50 ng/ml compound concentration. Format: functional, organism-based.
For test [20], the system named is Plasmodium falciparum. The test can be described thus: Antimalarial activity against Plasmodium falciparum D6 harboring 1 copy number of pfmdr1 gene organism selected at up to 80 ng/ml compound concentration. The format is functional, organism-based.
For test [21], the system named is Plasmodium falciparum. The test can be described thus: Antimalarial activity against Plasmodium falciparum W2 assessed as level of pfmdr1 mRNA expression organism selected on 80 ng/ml of compound by quantitative real-time RT-PCR with respect to wild type. Format: functional. (In general: Quantitative PCR measures a nucleic acid by following its amplification.)

The test system of test [22] is Plasmodium falciparum. Briefly: Antimalarial activity against Plasmodium falciparum TM91C235 assessed as level of pfmdr1 mRNA expression organism selected on 80 ng/ml of compound by quantitative real-time RT-PCR with respect to wild type. The format is functional.
Test [23] deals with Plasmodium falciparum. Briefly: Antimalarial activity against Plasmodium falciparum D6 assessed as level of pfmdr1 mRNA expression organism selected on 80 ng/ml of compound by quantitative real-time RT-PCR with respect to wild type. Format: functional, organism-based.
For test [24], the system named is Plasmodium falciparum. The test can be described thus: Antimalarial activity against Plasmodium falciparum W2 harboring 2 copy number of pfmdr1 gene organism selected at 40 ng/ml compound concentration. The format is functional, organism-based.
For test [25], the system named is Plasmodium falciparum. Briefly: Antimalarial activity against Plasmodium falciparum W2 harboring 2 copy number of pfmdr1 gene organism selected at 200 ng/ml compound concentration. The format is functional, organism-based.
For test [26], the system named is Plasmodium falciparum. The test can be described thus: Antimalarial activity against Plasmodium falciparum W2 assessed as level of pfmdr1 mRNA expression organism selected on 40 ng/ml of compound by quantitative real-time RT-PCR with respect to wild type. Format: functional.

Active and inactive are the calls of the source. The rule behind the calls is not given here.

On to `C[C@@H]1[C@H](OCc2ccc(C(=O)O)cc2)O[C@@H]2O[C@@]3(C)CC[C@@H]4[C@@H](C)CC[C@@H]1[C@]24OO3` [ARTELINIC ACID], for which the half-maximal inhibitory concentration (IC50) (usually the point on the concentration scale where inhibition reaches its midpoint) in the test on Plasmodium falciparum [1] turned out to be 4.37 nM; with Plasmodium falciparum [2] it was 23.3 nM; in the test on Plasmodium falciparum [3] it was 22.8 nM; in the test with Plasmodium falciparum [5], 34 nM; with Plasmodium falciparum [6] it was 23.6 nM; in the test on Plasmodium falciparum [7], 11.1 nM. In addition, the IC50 is 33.7 nM in the test on Plasmodium falciparum [8] and 24.6 nM with Plasmodium falciparum [9]. Besides, the IC90 (commonly the concentration at which the effect reaches the 90% level) in the test on Plasmodium falciparum [1] came to 7.45 nM; in the test with Plasmodium falciparum [2] it was 51.3 nM; with Plasmodium falciparum [3], 56.8 nM; with Plasmodium falciparum [4], 21.8 nM; in the test with Plasmodium falciparum [5], 81.3 nM; with Plasmodium falciparum [6], 75.9 nM. Besides, the values for the IC90 in the test on Plasmodium falciparum [7], in the test with Plasmodium falciparum [8] and with Plasmodium falciparum [9] were 23 nM, 53.5 nM and 75.9 nM, respectively. Further, the outcome with Plasmodium falciparum [10], with Plasmodium falciparum [11], in the test with Plasmodium falciparum [12], in the test on Plasmodium falciparum [13], in the test with Plasmodium falciparum [15] and in the test on Plasmodium falciparum [16] was inactive. Further, the outcome with Plasmodium falciparum [19] and with Plasmodium falciparum [20] was inactive. For the same molecule, the outcome in the test with Plasmodium falciparum [14], in the test with Plasmodium falciparum [17], with Plasmodium falciparum [18] and in the test with Plasmodium falciparum [23] was Active. Also, the “fold change (FC)” value in the test on Plasmodium falciparum [21] came out at 3; in the test on Plasmodium falciparum [22], 2.1.
Consider `C[C@@H]1CC[C@H]2[C@@H](C)C(=O)O[C@@H]3O[C@@]4(C)CC[C@@H]1[C@]32OO4` [ARTEMISININ], for which the result with Plasmodium falciparum [24] and with Plasmodium falciparum [25] was inactive. The “fold change (FC)” value in the test with Plasmodium falciparum [26] came out at 2.2.
